According to US10184933B2, “Compositions, systems and methods for gene expression noise drug screening and uses thereof” (priority 2013, dated 2019):
“Also recorded” adds a separate entry of the source. Read-outs that look alike come from different tables or passages of the source.

What was measured:
Assay type in all cases: cell-based
HIV-1 LTR promoter [1] = details: for variability in gene expression (noise magnitude) / mean expression level: known transcriptional modulators applied to the isoclone target; for variability in gene expression (noise magnitude) / mean expression level / burst frequency: FIG. 6D; for burst frequency: activator drugs
HIV-1 LTR promoter [2] = experiment: Two-reporter system (LTR-d2GFP and LTR-mCherry) noise measurement; details: FIG. 6E; for transcriptional burst frequency (decreasing noise in mCherry): transcriptional modifiers; for d2GFP noise / mCherry noise: known transcriptional activators
Protocol: Without being bound by theory, a destabilized reporter is required to observe transcriptional noise with shorter time scales. GFP noise magnitude (quantified by the variance over the mean fluorescence squared, CV^2) and mean fluorescence were measured by high-throughput flow cytometry 24 hours post 10 uM drug exposure. To control for extrinsic variability in gene expression due to cell volume and state a conservative gating on the population forward versus side scatter was applied (See General Methods). A second LTR driving a long-lived mCherry reporter was integrated and screened alongside the destabilized reporter drug target to control for fluctuations in global resources and post-transcriptional noise sources (FIG. 6E).
To distinguish between compounds that primarily target transcription versus post-transcriptional processes and global resources (extrinsic noise) a second reporter of the LTR promoter driving a stable mCherry gene was included in the same targeted cell population used in the drug noise screen (FIG. 6E). The stable reporter averages out and is unaffected by fluctuations due to episodic transcription. Theory predicts that the destabilized d2GFP reporter can detect transcriptional bursting noise contributions (γp>>kon,koff, where γp is the fluorescent reporter degradation rate) while the two reporters together will move their noise magnitudes to changes in non-transcriptional noise sources. Filtering out non-transcriptional noise signatures of VM hits increases the probability for synergistic reactivation of latency. Noise from the two reporters was compared using the same processing as the LTR-d2GFP. The LTR-mCherry ΔCV^2 of the 85 selected VMs primarily land along the ΔCV^2 d2GFP axis. […]. Of these 25 compounds 15 were identified as modifiers of cell cycle, ATP, inflammation, post-translational modifications, and translation.
In addition to the GFP reporter in the LTR-d2GFP cell line, an LTR driving a long half-life mCherry reporter was present in the cell line. […] To remove compounds that altered CV^2 post transcriptionally, compounds that affected the CV^2 long-lived red reporter while conserving its mean mCherry level were removed. This method continues development of the original and decade-old 2-reporter system for intrinsic versus extrinsic noise measurements in bacteria (Elowitz et al., (2002) Science 297:1183-1186).

HIV-1 LTR promoter [3] = experiment: Single-cell time-lapse fluorescence microscopy of polyclonal LTR d2GFP cell population; details: 10 μM, 24 hour pretreatment, tracked 12 hours, ~500 cells
Source text: Lentiviral vectors expressing the LTR-GFP cassette in the absence of Tat were described (Weinberger et al., 2005, Cell, 122(2):169-182) and used to infect 5×10^5 Jurkat cells at a multiplicity of infection <0.1, resulting in 25,000-50,000 infected cells each presumably with a unique integration site. Cells were then sorted by FACS to isolate green fluorescent protein-labeled (GFP+) cells and fluorescently imaged on glass-bottom dishes in RPMI 1640 with 10% fetal calf serum and 1% penicillin-streptomycin and 10 μM of VM at t=0 h for the population which was pre-treated with VM 1 day before imaging. […] For each trajectory, noise autocorrelation [Φ(t)] and magnitude (CV^2) were calculated using an established noise-processing algorithm (Weinberger at al., 2008, Nature Genetics, 40(4):466-470; Dar at al., 2012, Proc Natl Acad Sci USA 109:17454-17459; Boehm et al., 2013, Cell Cycle 12:452-462).
To assess whether identified VMs are specific to the integration site of the drug screen target, a polyclonal LTR d2GFP population was treated with select VM hits and imaged using time-lapse single cell fluorescence microscopy (Dar et al., 2012, Proc Natl Acad Sci USA 109:17454-17459; Boehm et al., 2013, Cell Cycle 12:452-462) (FIG. 6C). […]

[4] = tested on: latent HIV-1 in primary T-cells
Protocol: FIG. 18A schematically depicts a primary T-cell model of HIV-1 latency 48 h after reactivation with PMA or a subset of noise enhancers (% reactivation percentage is calculated relative to maximal reactivation potential). […] The horizontal line represents the mean calculated Bliss Independence Score (C. I. Bliss, Ann. Appl. Biol. 26:585-615 (1939)), a measure for strict additivity for all of the compounds. FIG. 18B schematically depicts stochastic simulations of noise suppression, which reduces noise without altering the mean expression level but limits reactivation induced by an activator. […] Details are described, e.g., in Example 10.

[5] = tested on: latent HIV-1 in JLat 8.6 cells
[6] = Pharmakon 1600 library, 10 uM, 24 hours, FIG. 10
[7] = with one or more of PMA, prostratin, TNFα, and bryostatin, FIG. 11

Nc1ncn([C@@H]2O[C@H](CO)[C@@H](O)[C@H]2O)c(=O)n1 [AZA, 4-Amino-1-(β-D-ribofuranosyl)1,3,5-triazin-2(1H)-one]
identified as variability enhancer (VE) in noise screen (HIV-1 LTR promoter [1]; [6]): variability enhancers | variability in gene expression (noise magnitude) (HIV-1 LTR promoter [1]): increase variability in gene expression; also recorded: variability enhancers | transcriptional burst frequency (decreasing noise in mCherry) (HIV-1 LTR promoter [2]): increase transcriptional burst frequency

CCC/C=C/C=C/C(=O)O[C@H]1/C(=C/C(=O)OC)C[C@H]2C[C@H]([C@@H](C)O)OC(=O)C[C@H](O)C[C@@H]3C[C@H](OC(C)=O)C(C)(C)[C@](O)(C[C@@H]4C/C(=C/C(=O)OC)C[C@H](/C=C/C(C)(C)[C@]1(O)O2)O4)O3 [Bryostatin, bryostatin]
mean expression level (HIV-1 LTR promoter [1]): scored lower | d2GFP noise (HIV-1 LTR promoter [2]): decrease both mCherry and d2GFP noise | mCherry noise (HIV-1 LTR promoter [2]): decrease both mCherry and d2GFP noise | transcriptional burst frequency (decreasing noise in mCherry) (HIV-1 LTR promoter [2]): increase transcriptional burst frequency

Nc1ccccc1NC(=O)c1ccc(CNC(=O)OCc2cccnc2)cc1 [MS-275, 3-pyridinylmethyl [[4-[[(2-aminophenyl)amino]carbonyl]phenyl]methyl]carbamate]
variability in gene expression (noise magnitude) (HIV-1 LTR promoter [1]): increase variability in gene expression; also recorded: variability enhancers | d2GFP noise (HIV-1 LTR promoter [2]): increase d2GFP noise | mCherry noise (HIV-1 LTR promoter [2]): decrease mCherry noise | transcriptional burst frequency (decreasing noise in mCherry) (HIV-1 LTR promoter [2]): increase transcriptional burst frequency

CCCCCCCCCCCCCC(=O)O[C@@H]1[C@@H](C)[C@@]2(O)[C@@H](C=C(CO)C[C@]3(O)C(=O)C(C)=C[C@@H]23)[C@@H]2C(C)(C)[C@]12OC(C)=O [PMA, phorbol 12-myristate 13-acetate]
burst frequency (HIV-1 LTR promoter [1]): increase burst frequency | mean expression level (HIV-1 LTR promoter [1]): increase mean expression level | variability in gene expression (noise magnitude) (HIV-1 LTR promoter [1]): decrease variability in gene expression; also recorded: decrease noise magnitude | d2GFP noise (HIV-1 LTR promoter [2]): decrease both mCherry and d2GFP noise | mCherry noise (HIV-1 LTR promoter [2]): decrease both mCherry and d2GFP noise | transcriptional burst frequency (decreasing noise in mCherry) (HIV-1 LTR promoter [2]): increase transcriptional burst frequency

CC(=O)O[C@@]12CO[C@@H]1C[C@H](O)[C@@]1(C)C(=O)[C@H](O)C3=C(C)[C@@H](OC(=O)[C@H](O)[C@@H](NC(=O)OC(C)(C)C)c4ccccc4)C[C@@](O)([C@@H](OC(=O)c4ccccc4)[C@H]21)C3(C)C [V1, docetaxel]
identified as variability enhancer (VE) in noise screen (HIV-1 LTR promoter [1]; [6]): variability enhancers | high frequency noise magnitude (HF-CV^2) versus untreated polyclonal population (HIV-1 LTR promoter [3]): increased high frequency noise magnitude; also recorded: increased noise magnitude trends above the untreated population

COC(=O)Nc1nc2ccc(C(=O)c3ccccc3)cc2[nH]1 [V7, mebendazole]
identified as variability enhancer (VE) in noise screen (HIV-1 LTR promoter [1]; [6]): variability enhancers | synergy with PMA [4]: reactivating half of the remaining cells that PMA alone did not reactivate | increased activation with PMA ([4]; 48 h, relative to maximal reactivation potential): ~20% | synergy in reactivation of HIV-1 latency [5]: synergized

CC(=O)OCC(=O)[C@@]1(O)CC[C@H]2[C@@H]3CCC4=CC(=O)CC[C@]4(C)[C@@]3(F)[C@@H](O)C[C@@]21C [V96, fludrocortisone acetate]
identified as variability enhancer (VE) in noise screen (HIV-1 LTR promoter [1]): variability enhancers | synergy in reactivation of HIV-1 latency [5]: synergized

CCN(C(C)=O)c1cccc(-c2ccnc3c(C#N)cnn23)c1 [V97, zaleplon]
identified as variability enhancer (VE) in noise screen (HIV-1 LTR promoter [1]; [6]): variability enhancers | synergy in reactivation of HIV-1 latency [5]: synergized

CCCCC(CC)COc1ccc(-c2nc(-c3ccc(OC)cc3)nc(-c3ccc(OCC(CC)CCCC)cc3O)n2)c(O)c1 (stereo not drawn) [V98, bemotrizinol]
identified as variability enhancer (VE) in noise screen (HIV-1 LTR promoter [1]; [6]): variability enhancers | synergy in reactivation of HIV-1 latency [5]: synergized

Oc1ccc(Cl)cc1 [V99, parachlorophenol]
identified as variability enhancer (VE) in noise screen (HIV-1 LTR promoter [1]): variability enhancers | synergy in reactivation of HIV-1 latency [5]: synergized

O=[N+]([O-])OCC(CO[N+](=O)[O-])O[N+](=O)[O-] [V100, nitroglycerin]
identified as variability enhancer (VE) in noise screen (HIV-1 LTR promoter [1]; [6]): variability enhancers | synergy in reactivation of HIV-1 latency [5]: synergized

CC(=O)Nc1c(I)cc(I)c(C(=O)O)c1I [V102, acetriazoic acid]
identified as variability enhancer (VE) in noise screen (HIV-1 LTR promoter [1]): variability enhancers | synergy in reactivation of HIV-1 latency [5]: synergized

TNFα
burst frequency (HIV-1 LTR promoter [1]): increase burst frequency | mean expression level (HIV-1 LTR promoter [1]): increase mean expression level | variability in gene expression (noise magnitude) (HIV-1 LTR promoter [1]): decrease variability in gene expression; also recorded: decrease noise magnitude | d2GFP noise (HIV-1 LTR promoter [2]): decrease both mCherry and d2GFP noise | mCherry noise (HIV-1 LTR promoter [2]): decrease both mCherry and d2GFP noise | transcriptional burst frequency (decreasing noise in mCherry) (HIV-1 LTR promoter [2]): increase transcriptional burst frequency

acetophenazine maleate [V12]
identified as variability enhancer (VE) in noise screen (HIV-1 LTR promoter [1]): variability enhancers | synergy in reactivation of HIV-1 latency [5]: synergized

carboplatin [V71]
identified as variability enhancer (VE) in noise screen (HIV-1 LTR promoter [1]; [6]): variability enhancers | synergy in reactivation of HIV-1 latency [5, 7]: synergized

colesevalam hydrochloride [V60]
identified as variability enhancer (VE) in noise screen (HIV-1 LTR promoter [1]; [6]): variability enhancers | synergy in reactivation of HIV-1 latency [5]: synergized

colistin sulfate [V45]
identified as variability enhancer (VE) in noise screen (HIV-1 LTR promoter [1]; [6]): variability enhancers | synergy in reactivation of HIV-1 latency [5, 7]: synergized

sucralfate [V79]
identified as variability enhancer (VE) in noise screen (HIV-1 LTR promoter [1]; [6]): variability enhancers | synergy in reactivation of HIV-1 latency [5]: synergized
